The results in this text go back to BindingDB's records for doi:10.7270/Q2959KQ0 (n/a, 1993).

The target of this test is T1, 5-hydroxytryptamine receptor 3A/3B (Rattus norvegicus, UniProt P35563+Q9JJ16).
T1 sequence (P35563 whole entry): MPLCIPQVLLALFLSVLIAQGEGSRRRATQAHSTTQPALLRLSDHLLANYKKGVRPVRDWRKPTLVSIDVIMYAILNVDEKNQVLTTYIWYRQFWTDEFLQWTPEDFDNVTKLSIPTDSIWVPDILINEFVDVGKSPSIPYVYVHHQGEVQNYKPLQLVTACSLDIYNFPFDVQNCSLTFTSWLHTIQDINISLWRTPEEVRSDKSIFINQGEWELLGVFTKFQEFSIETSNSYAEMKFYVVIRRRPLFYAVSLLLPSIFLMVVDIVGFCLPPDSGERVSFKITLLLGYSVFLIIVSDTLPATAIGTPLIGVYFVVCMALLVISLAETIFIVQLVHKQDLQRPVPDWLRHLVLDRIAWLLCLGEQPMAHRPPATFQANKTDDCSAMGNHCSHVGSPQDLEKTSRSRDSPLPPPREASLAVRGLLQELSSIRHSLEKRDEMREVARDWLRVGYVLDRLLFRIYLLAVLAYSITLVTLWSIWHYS
T1 sequence (Q9JJ16 whole entry): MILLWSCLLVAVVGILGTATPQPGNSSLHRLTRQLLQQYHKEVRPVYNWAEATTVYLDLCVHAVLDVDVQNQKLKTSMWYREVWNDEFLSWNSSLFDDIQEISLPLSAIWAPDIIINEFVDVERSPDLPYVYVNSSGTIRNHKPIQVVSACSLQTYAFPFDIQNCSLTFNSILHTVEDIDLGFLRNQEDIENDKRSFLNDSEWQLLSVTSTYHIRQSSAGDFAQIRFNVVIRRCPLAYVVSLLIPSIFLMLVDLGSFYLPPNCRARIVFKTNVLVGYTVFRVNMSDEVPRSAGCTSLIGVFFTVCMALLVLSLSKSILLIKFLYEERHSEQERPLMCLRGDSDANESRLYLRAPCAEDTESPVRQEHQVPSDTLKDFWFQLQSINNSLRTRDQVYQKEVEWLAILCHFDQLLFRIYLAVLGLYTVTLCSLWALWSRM
Nature of the test: Binding affinity to 5-hydroxytryptamine 3 receptor was determined in rat cerebro cortical membranes using [3H]quipazine.

A word on the Ki: it is a dissociation constant, usually derived from enzyme kinetics or from competition with a known ligand. Higher therefore signals lower affinity. For `COc1cc(N)c(Cl)cc1C(=O)N[C@H]1CN2CCC1CC2` [4-Amino-N-(R)-1-aza-bicyclo[2.2.2]oct-3-yl-5-chloro-2-methoxy-benzamide], the Ki was 3.2 nM.
